How the values were obtained:
Assay type in all cases: functional
Saccharomyces cerevisiae [1] = assay: (§1) MMV: Growth assays were conducted using the prototrophic S. cerevisiae strain JHY222. Each MMV compound (0.1 mM) was tested in rich media containing dextrose as a carbon source (Yeast Extract, Peptone, Dextrose; YPD). The growth rate in the presence of each MMV compound was calculated as follows: (i) the first 10 OD readings were averaged and subtracted from all OD readings of the corresponding curve to set the baseline of the growth curve to zero, and (ii) the area under the curve (AUC) was then calculated as the sum of all OD readings. […] A relative growth value was calculated as follows: AUC(DRUG) - AUC(DMSO)/AUC(DMSO); where AUC(DMSO) represents growth measured in a DMSO control well that was on the same microtiter plate of the drug-treated culture.
Saccharomyces cerevisiae [2] = assay: as §1, with “minimal” for “rich”, “ethanol and glycerol” for “dextrose”, “as” for “as a”, “sources” for “source”, “Nitrogen Base, Ethanol, Glycerol; YNBEG).” for “Extract, Peptone, Dextrose; YPD).”
Saccharomyces cerevisiae [3] = assay: as §1, with “minimal” for “rich”, “Nitrogen Base,” for “Extract, Peptone,”, “YNBD).” for “YPD).”

Structure (SMILES)	Relative Growth (Saccharomyces cerevisiae [1])	Relative Growth (Saccharomyces cerevisiae [2])	Relative Growth (Saccharomyces cerevisiae [3])
COc1ccc(Nc2nc(N/N=C/c3ccc(O)cc3)nc(Nc3ccc([N+](=O)[O-])cc3)n2)cc1	0.0149	0.0812	0.2735
COc1ccc(-c2nc(N3CCN(C(=O)C4CCCCC4)CC3)c3c4c(sc3n2)CCCC4)cc1	-0.0342	-0.067	0.0845
O=C(NC1CCN(Cc2ccccc2)CC1)c1cc2nc(-c3ccc(Cl)s3)cc(C(F)(F)F)n2n1	0.0199	-0.0027	0.0049
Cc1sc(NC(=O)c2ccccc2)c(C(c2cccs2)N2CCN(c3ccccc3)CC2)c1C (centres undefined)	0.0207	0.0234	-0.0211
N#Cc1nc(Cc2cccc3ccccc23)oc1N1CCN(C(c2ccccc2)c2ccccc2)CC1	-0.0026	0.0463	0.059
CCOc1ccc(N2C(N)=NC(N)=NC2(C)C)cc1.Cl	-0.0058	0.0602	-0.1178
COC(=O)c1ccc(C2C3=C(O)CC(c4ccc(F)cc4)CC3=Nc3ccccc3N2C(=O)c2ccccc2)cc1 (centres undefined)	-0.0053	0.1245	0.2377
CC(Oc1ccc(NC(=O)c2cccs2)cc1)C(=O)c1ccc(Cl)cc1 (centres undefined)	0.0426	0.0184	0.1664
CCOc1ccc(CN2CCN(CC(O)COc3ccc(OCC(O)CN4CCN(Cc5ccc(OCC)cc5)CC4)cc3)CC2)cc1 (centres undefined)	-0.0814	-0.2934	-0.1042
CCCCNc1nc(NC(C)(C)C)nc(NC(C)(C)C)n1	0.0174	-0.1542	-0.0768
COc1ccc(CCn2c(=N)c(C(=O)NCc3cccnc3)cc3c(=O)n4cccc(C)c4nc32)cc1	0.0999	-0.1242	0.0391
Cl.Cn1c(=O)n(C)c2cc(CNCCNc3ccnc4cc(Cl)ccc34)ccc21	-0.0297	0.2785	0.301
O=C(Nc1ccc(-c2nc3cc(NC(=O)c4ccc(Cl)cc4)ccc3[nH]2)cc1)c1ccc(Cl)cc1	-0.0297	0.0694	0.0064
Cc1ccc(Nc2nc(N)c3ccccc3n2)cc1Cl	-0.0022	-0.1803	-0.1031
CCc1ccc(CNCC(O)c2ccccc2)cc1.Cl (centres undefined)	-0.1772	-0.0955	-0.0182
COc1cc(CNCCc2ccc(Cl)cc2)cc(OC)c1O	0.0063	-0.0938	0.0037
CCOc1ccc(Nc2ccnc3cc(Cl)ccc23)cc1	0.0185	0.0427	0.0274
CCOc1ccc2nc(C)cc(Nc3ccc(Br)cc3)c2c1	0.0466	0.014	-0.9176
COc1ccc2sc(N(Cc3cccnc3)C(=O)c3ccc(C#N)cc3)nc2c1	-0.0469	-0.5371	-0.1064
CCOC(=O)C1=CN(C)C=C(C(=O)OCC)C1c1cc(Br)c(OCC)c(OC)c1	-0.1817	-0.4757	0.2106
CC(C)(C)c1ccc(C2CC3=Nc4ccccc4N(C(=O)c4ccccc4Cl)C(c4ccc(F)cc4)C3=C(O)C2)cc1 (centres undefined)	-0.0874	-0.3538	-0.0515
CN1CCN(c2nc(Nc3ccc(O)cc3)nc3ccccc23)CC1.Cl	-0.0029	-0.0432	-0.0206
CCCCc1c(CCC)c(=N)c2ccccc2n1C.I	-0.0798	0.0643	0.0105

From ChEMBL document CHEMBL3301546, “MMV Malaria Box yeast growth screening”
